Tests used:
Staphylococcus aureus = assay: Agar diffusion antimicrobial test, Staphylococcus aureus; type: cell-based; conditions: Gram+ve, modified Kirby–Bauer disk diffusion, 10 µg/mL
Description: (§1) The newly synthesized compounds 3–12 were tested for their preliminary antimicrobial activity against different microorganisms representing Gram-positive (Bacillus subtilis, Bacillus aureus and Staphylococcus aureus), Gram-negative bacteria (Escherichia coli), yeast (Candida albican) and fungi (Aspergillus niger).
(§2) The antimicrobial activities of the synthesized compounds were determined by the agar diffusion method as recommended by the national committee for clinical laboratory standards (NCCLS). The concentrations of the tested compounds (10 µg/mL) were used according to modified Kirby–Bauer’s disk diffusion method. The degree of inhibition is measured in comparison with that of chloramphinicol and fusidic acid taken as standards.

MCF7 = type: cell-based, human; conditions: MTT, 3 days, 37 °C; at least three experiments; read-out: IC50 against breast cell line MCF7
Description: (§3) The cytotoxicity of the newly synthesized compounds against cancer cell lines in vitro was performed with the MTT assay according to the Mosmann’s method. The MTT assay is based on the reduction of the soluble 3-(4,5-[…]-2-thiazolyl)-2,5-diphenyl-2H-tetrazolium bromide (MTT) into a blue-purple formazan product, mainly by mitochondrial reductase activity inside living cells. The cells used in cytotoxicity assay were cultured in RPMI 1640 medium supplemented with 10% fetal calf serum. Cells suspended in the medium (2 × 10^4 mL^−^1) were plated in 96-well culture plates and incubated at 37 °C in a 5% CO2 incubator. […] The cultured cells were mixed with 20 μL of MTT solution and incubated for 4 h at 37 °C. The supernatant was carefully removed from each well and 100 μL of DMSO were added to each well to dissolve the formazan crystals which were formed by the cellular reduction of MTT. After mixing with a mechanical plate mixer, the absorbance of each well was measured by a microplate reader using a test wavelength of 570 nm. The results were expressed as the IC50, which inducing a 50% inhibition of cell growth of treated cells when compared to the growth of control cells. Each experiment was performed at least three times. There was a good reproducibility between replicate wells with standard errors below 10%.

Aspergillus niger = assay: Agar diffusion antimicrobial test, Aspergillus niger; type: cell-based; conditions: Fungi, modified Kirby–Bauer disk diffusion, 10 µg/mL
Description: as §1, §2

MDAMB435 = type: cell-based; conditions: MTT, 3 days, 37 °C; at least three experiments; read-out: IC50 against breast cell line MDAMB435
Description: as §3

HS578T = type: cell-based; conditions: MTT, 3 days, 37 °C; at least three experiments; read-out: IC50 against breast cell line HS578T
Description: as §3

MDAMB231 = type: cell-based; conditions: MTT, 3 days, 37 °C; at least three experiments; read-out: IC50 against breast cell line MDAMB231
Description: as §3

Bacillus aureus = assay: Agar diffusion antimicrobial test, Bacillus aureus; type: cell-based; conditions: Gram+ve, modified Kirby–Bauer disk diffusion, 10 µg/mL
Description: as §1, §2

[1] = tested on: carrageenan-induced edema; assay: Carrageenan-induced edema (rat paw test); type: in vivo; conditions: one hour before carrageenan, male albino rats, eight animals per group, paws excised four hours after drug administration
Description: (§4) For the determination of the antiphlogistic potency of the synthesized compounds, two standard tests were realized at a dose level 2.5 and 5 mg/kg body weight of the rats, namely the protection against carrageenan-induced edema according to Winter et al. and the inhibition of plasma PGE2. The latter is known as a good confirming indicator for carrageenan-induced rat paw edema. […] For these compounds, a similar activity profile was realized for the inhibition of plasma PGE2.
(§5) Groups of adult male albino rats (150–180 g), each of eight animals were orally dosed with tested compounds at a dose level of 2.5–5 mg/kg one hour before carrageenan challenge. Foot paw edema was induced by subplantar injection of 0.05 cm^3 of a 1% suspension of carrageenan in saline into the plantar tissue of one hind paw. An equal volume of saline was injected to the other hand paw and served as control. Four hours after drug administration the animals were decapitated, blood was collected, and the paws were rapidly excised. The average weight of edema was examined for the treated as well as the control group and the percentage inhibition of weight of edema was also evaluated. Diclofenac potassium (5 mg/kg) was employed as standard reference against which the tested compounds were compared (Table 2).

Candida albicans = assay: Agar diffusion antimicrobial test, Candida albicans; type: cell-based; conditions: Yeast, modified Kirby–Bauer disk diffusion, 10 µg/mL
Description: as §1, §2

Escherichia coli = assay: Agar diffusion antimicrobial test, Escherichia coli; type: cell-based; conditions: Gram−ve, modified Kirby–Bauer disk diffusion, 10 µg/mL
Description: as §1, §2

Bacillus subtilis = assay: Agar diffusion antimicrobial test, Bacillus subtilis; type: cell-based; conditions: Gram+ve, modified Kirby–Bauer disk diffusion, 10 µg/mL
Description: as §1, §2

plasma PGE2 = assay: Inhibition of plasma PGE2 (EIA) in carrageenan-challenged rats; type: in vivo, rat; conditions: rats n = 8, blood four hours after drug administration, PGE2 EIA kit
Description: as §4, §5
Heparinized blood samples were collected from rats (n = 8), plasma was separated by centrifugation at 12,000 g for 2 min at […], immediately frozen, and stored at […] until use. The design correlate EIA prostaglandin E2 (PGE2) kit (Aldrich, Steinheim, Germany) is a competitive immuno assay for the quantitative determination of PGE2 in biological fluids. The kit uses a monoclonal antibody to PGE2 to bind, in a competitive manner, the PGE2 in the sample after a simultaneous incubation at room temperature. The excess reagents were washed away and the substrate was added, after a short incubation time the enzyme reaction was stopped, and the yellow color generated was read on a microplate reader DYNATech, MR 5000 at 405 nm (Dynatech Industries Inc., McLean, VA, USA). The intensity of the bound yellow color is inversely proportional to the concentration of PGE2 in either standard or samples.

CC(C)C[C@H](NC(=O)c1cncc(C(=O)N[C@@H](CC(C)C)C(=O)N/N=C/c2ccc([N+](=O)[O-])cc2)c1)C(=O)N/N=C/c1ccc([N+](=O)[O-])cc1 [Compound 10d]
Inhibition Zome, Staphylococcus aureus (Staphylococcus aureus): 1.92 cm
IC50 (MCF7): 0.00035 µM
Inhibition Zome, Aspergillus niger (Aspergillus niger): 2.00 cm
IC50 (MDAMB435): 57.5 µM
IC50 (HS578T): 5.67 µM
IC50 (MDAMB231): 3.67 µM
Inhibition Zome, Bacillus aureus (Bacillus aureus): 2.00 cm
% Protection against Edema ([1]; dose 2.5 mg/kg oral): 81.00 ± 0.072%
% Protection against Edema ([1]; dose 5.0 mg/kg oral): 95.82 ± 0.062%
Inhibition Zome, Candida albicans (Candida albicans): 0.96 cm
Inhibition Zome, Escherichia coli (Escherichia coli): 0.90 cm
Inhibition Zome, Bacillus subtilis (Bacillus subtilis): 1.85 cm
% Inhibition of Plasma PGE2 (plasma PGE2; dose 2.5 mg/kg oral): 63.14 ± 0.023%
% Inhibition of Plasma PGE2 (plasma PGE2; dose 5.0 mg/kg oral): 79.88 ± 0.031%

CC(C)C[C@H](NC(=O)c1cncc(C(=O)N[C@@H](CC(C)C)C(=O)NN)c1)C(=O)NN [Compound 4, N^2,N^2′-(Pyridine-3,5-dicarbonyl)-di-L-leucyl hydrazide]
Inhibition Zome, Staphylococcus aureus (Staphylococcus aureus): 1.80 cm
Inhibition Zome, Aspergillus niger (Aspergillus niger): 1.56 cm
Inhibition Zome, Bacillus aureus (Bacillus aureus): 1.92 cm
% Protection against Edema ([1]; dose 2.5 mg/kg oral): 93.45 ± 0.074%
% Protection against Edema ([1]; dose 5.0 mg/kg oral): 98.56 ± 0.060%
Inhibition Zome, Candida albicans (Candida albicans): 0.92 cm
Inhibition Zome, Escherichia coli (Escherichia coli): 0.80 cm
Inhibition Zome, Bacillus subtilis (Bacillus subtilis): 1.85 cm
% Inhibition of Plasma PGE2 (plasma PGE2; dose 2.5 mg/kg oral): 75.66 ± 0.040%
% Inhibition of Plasma PGE2 (plasma PGE2; dose 5.0 mg/kg oral): 80.01 ± 0.058%

CC(C)C[C@H](NC(=O)c1cncc(C(=O)N[C@@H](CC(C)C)C(=O)NN2C(=O)c3ccccc3C2=O)c1)C(=O)NN1C(=O)c2ccccc2C1=O [Compound 7a]
Inhibition Zome, Staphylococcus aureus (Staphylococcus aureus): 1.58 cm
Inhibition Zome, Aspergillus niger (Aspergillus niger): 1.64 cm
Inhibition Zome, Bacillus aureus (Bacillus aureus): 1.84 cm
% Protection against Edema ([1]; dose 2.5 mg/kg oral): 97.45 ± 0.054%
% Protection against Edema ([1]; dose 5.0 mg/kg oral): 98.86 ± 0.046%
Inhibition Zome, Candida albicans (Candida albicans): 1.02 cm
Inhibition Zome, Escherichia coli (Escherichia coli): 0.75 cm
Inhibition Zome, Bacillus subtilis (Bacillus subtilis): 1.55 cm
% Inhibition of Plasma PGE2 (plasma PGE2; dose 2.5 mg/kg oral): 81.30 ± 0.044%
% Inhibition of Plasma PGE2 (plasma PGE2; dose 5.0 mg/kg oral): 82.48 ± 0.052%

COc1ccc(/C(C)=N/NC(=O)[C@H](CC(C)C)NC(=O)c2cncc(C(=O)N[C@@H](CC(C)C)C(=O)N/N=C(\C)c3ccc(OC)cc3)c2)cc1 [Compound 9b]
Inhibition Zome, Staphylococcus aureus (Staphylococcus aureus): 1.72 cm
Inhibition Zome, Aspergillus niger (Aspergillus niger): 1.88 cm
Inhibition Zome, Bacillus aureus (Bacillus aureus): 1.74 cm
% Protection against Edema ([1]; dose 2.5 mg/kg oral): 79.34 ± 0.081%
% Protection against Edema ([1]; dose 5.0 mg/kg oral): 92.92 ± 0.090%
Inhibition Zome, Candida albicans (Candida albicans): 1.00 cm
Inhibition Zome, Escherichia coli (Escherichia coli): 0.75 cm
Inhibition Zome, Bacillus subtilis (Bacillus subtilis): 1.60 cm
% Inhibition of Plasma PGE2 (plasma PGE2; dose 2.5 mg/kg oral): 57.90 ± 0.040%
% Inhibition of Plasma PGE2 (plasma PGE2; dose 5.0 mg/kg oral): 77.14 ± 0.052%
